Experiments:
Jurkat cells [1] = settings: literature search; cited from earlier work
Jurkat cells [2] = assay: Growth inhibition of Jurkat cells, resazurin-based in vitro toxicology assay (TOX-8); format: cell-based, Human; settings: for activity at 100 µM: Homo sapiens, Jurkat, read-out: Jurkat cell growth as percentage of the untreated control
OVCAR-3 cells [3] = settings: literature; cited from earlier work
OVCAR-3 cells [4] = assay: Growth inhibition of OVCAR-3 cells, resazurin-based in vitro toxicology assay (TOX-8); format: cell-based, human; settings: single metabolite, 100 μM, 72 hours
HeLa cell = settings: literature; cited from earlier work
[5] = molecular target: T1, tryptophanyl-tRNA synthetase (Homo sapiens, UniProt P23381); settings: literature; cited from earlier work
T1 construct: host or cells: HeLa (cell context of the cited finding)
T1 sequence (P23381 1-471): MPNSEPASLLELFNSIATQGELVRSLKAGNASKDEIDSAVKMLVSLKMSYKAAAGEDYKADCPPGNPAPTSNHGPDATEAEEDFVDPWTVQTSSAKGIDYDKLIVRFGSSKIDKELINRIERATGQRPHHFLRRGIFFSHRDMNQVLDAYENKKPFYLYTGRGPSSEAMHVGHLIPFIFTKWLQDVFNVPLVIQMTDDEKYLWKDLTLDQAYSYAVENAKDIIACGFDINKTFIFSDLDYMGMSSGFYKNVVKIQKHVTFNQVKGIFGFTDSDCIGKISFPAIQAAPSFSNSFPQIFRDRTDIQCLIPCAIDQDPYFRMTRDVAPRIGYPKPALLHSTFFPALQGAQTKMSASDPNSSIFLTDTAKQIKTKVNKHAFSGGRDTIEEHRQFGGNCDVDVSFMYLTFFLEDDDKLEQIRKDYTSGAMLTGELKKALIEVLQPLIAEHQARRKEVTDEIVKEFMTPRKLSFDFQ

normal T lymphocytes = settings: cited from earlier work
HL-60 cells = settings: literature; cited from earlier work
human lymphoblast cells = assay: Growth of human lymphoblast cells cultured in identical conditions; format: cell-based; settings: 50 μM
Method: The positive association between lowered metabolite levels in Jurkat cells as predicted by CoMet and antiproliferative activity of the metabolite in that cell line is highly significant (Fisher's exact test two-tailed p-value=8.7×10^−6). Furthermore, when the effect of these metabolites on growth inhibition was tested in Jurkat and human lymphoblast cells cultured in identical conditions, a pattern of selectivity of the antiproliferative effect towards the cancer cell line became evident.

malignant erythroblasts = settings: literature; cited from earlier work
RNA polymerase II = settings: literature; cited from earlier work
histone deacetylase 1 = molecular target: T2, histone deacetylase 1 (Homo sapiens, UniProt Q13547); settings: literature; cited from earlier work
T2 construct: host or cells: HT29 (cell context of the cited finding)

HT29 colon cancer cells = settings: literature; cited from earlier work
[6] = single metabolite, 100 μM, 72 hour treatment, control = 100%, lower = stronger inhibition

T2 sequence (Q13547 whole entry): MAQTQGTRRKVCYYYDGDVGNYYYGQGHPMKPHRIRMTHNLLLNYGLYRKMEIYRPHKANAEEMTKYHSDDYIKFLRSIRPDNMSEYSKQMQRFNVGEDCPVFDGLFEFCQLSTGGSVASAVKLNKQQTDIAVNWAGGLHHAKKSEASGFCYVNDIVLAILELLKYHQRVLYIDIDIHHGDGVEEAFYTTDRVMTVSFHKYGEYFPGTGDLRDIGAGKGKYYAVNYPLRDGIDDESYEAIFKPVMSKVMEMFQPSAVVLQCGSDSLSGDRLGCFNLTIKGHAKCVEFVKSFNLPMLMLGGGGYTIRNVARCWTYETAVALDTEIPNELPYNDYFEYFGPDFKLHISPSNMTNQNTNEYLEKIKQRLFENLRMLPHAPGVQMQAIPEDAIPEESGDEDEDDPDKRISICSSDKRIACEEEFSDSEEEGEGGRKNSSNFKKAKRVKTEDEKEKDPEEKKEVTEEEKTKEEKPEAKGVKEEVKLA

Compound	anticancer activity in Jurkat cells known from the literature (Jurkat cells [1])	activity at 100 µM (Jurkat cells [2]; [6])	other results
C[C@]12CC[C@H]3[C@@H](CCC4=CC(=O)CC[C@@]43C)[C@@H]1CC[C@@H]2O [testosterone]	active in Jurkat cells		
CC(C)CCC[C@@H](C)[C@H]1CC[C@H]2[C@@H]3CC=C4C[C@@H](O)CC[C@]4(C)[C@H]3CC[C@]12C [cholesterol]		> 90%	
COc1ccc2[nH]cc(CCNC(C)=O)c2c1 [melatonin]	active in Jurkat cells		
CC1=C(/C=C/C(C)=C/C=C/C(C)=C/C(=O)O)C(C)(C)CCC1 [all-trans-retinoic acid]			anticancer activity in OVCAR-3 cells previously demonstrated (OVCAR-3 cells [3]): anticancer activity
N[C@@H](Cc1cc(I)c(Oc2ccc(O)c(I)c2)c(I)c1)C(=O)O [3′,3,5-triiodo-L-thyronine]			anticancer activity in OVCAR-3 cells previously demonstrated (OVCAR-3 cells [3]): anticancer activity
N[C@@H](CS(=O)O)C(=O)O [sulfino-L-alanine, 3-sulfino-L-alanine]			effect on growth of Jurkat cells (in words) (Jurkat cells [2]; single metabolite, 100 μM, 72 hour treatment): did not inhibit the growth; effect on growth of OVCAR-3 cells (in words) (OVCAR-3 cells [4]): did not inhibit the growth
O=C(O)CC(O)(CC(=O)O)C(=O)O [citric acid]		> 90%	
CC(=O)C=O [methylglyoxal]	active in Jurkat cells		
Cc1cc2nc[nH]c2cc1C [5,6-di-ethylbenzimidazole, 5,6-dimethylbenzimidazole]		61.4%	
Cc1cn([C@H]2C[C@H](O)[C@@H](CO)O2)c(=O)[nH]c1=O [thymidine]	antineoplastic agent		
NCCc1c[nH]c2ccccc12 [tryptamine]			effect on HeLa cell growth (HeLa cell): effective inhibitor; effect on tryptophanyl-tRNA synthetase [5]: competitive inhibition
Nc1nc2c(ncn2[C@H]2C[C@H](O)[C@@H](CO)O2)c(=O)[nH]1 [2′-deoxyguanosine]	active in Jurkat cells		
CCCCC[C@H](O)/C=C/[C@H]1C(=O)C[C@H](O)[C@@H]1C/C=C\CCCC(=O)O [prostaglandin D2]	induces apoptosis		effect on viability of normal T lymphocytes (normal T lymphocytes): without inhibiting the viability
OC[C@H]1O[C@@H](n2cnc3c(O)ncnc32)C[C@@H]1O [2′-deoxyinosine]	active in Jurkat cells		
sphingolipid GD3	active in Jurkat cells		
Nc1nc2ncc(CNc3ccc(C(=O)N[C@@H](CCC(=O)O)C(=O)O)cc3)nc2c(=O)[nH]1 [folic acid]		> 90%	

Compound	anticancer activity in Jurkat cells known from the literature (Jurkat cells [1])	activity at 100 µM (Jurkat cells [2]; [6])	other results
C=CC1=C(C)/C(=C/c2[nH]c(Cc3[nH]c(/C=C4\NC(=O)C(C)=C4C=C)c(C)c3CCC(=O)O)c(CCC(=O)O)c2C)NC1=O [bilirubin]		21.3%	
CC(C)(CO)[C@@H](O)C(=O)NCCC(=O)O [pantothenic acid]		> 90%	
CCCCC/C=C\C/C=C\CCCCCCCC(=O)O [linoleic acid]	active in Jurkat cells		
C=C1/C(=C\C=C2/CCC[C@]3(C)[C@@H]([C@H](C)CCCC(C)(C)O)CC[C@@H]23)C[C@@H](O)C[C@@H]1O [calcitriol]			anticancer activity in OVCAR-3 cells previously demonstrated (OVCAR-3 cells [3]): anticancer activity
Cc1cc2nc3c(=O)[nH]c(=O)nc-3n(C[C@H](O)[C@H](O)[C@H](O)CO)c2cc1C [riboflavin]		> 70%	
menaquinone			Jurkat cell growth as percentage of the untreated control (Jurkat cells [2]; [6]): 11.3%; effect on HL-60 cells (HL-60 cells): induce G0/G1 arrest, differentiation, and apoptosis
CC(=O)CO [hydroxyacetone]		> 70%	
C[C@]12CC[C@H](O)CC1=CC[C@@H]1[C@@H]2CC[C@]2(C)C(=O)CC[C@@H]12 [dehydroepiandrosterone]			effect on growth of Jurkat cells (in words) (Jurkat cells [2]; 50 μM): inhibited the growth; effect on proliferation of lymphoblasts (in words) (human lymphoblast cells): stimulated the proliferation
Nc1ncnc2c1ncn2[C@H]1C[C@H](O)[C@@H](CO)O1 [2′-deoxyadenosine]	active in Jurkat cells		
Clc1cc2nc[nH]c2cc1Cl [5,6-dichlorobenzimidazole]			effect on malignant erythroblasts (malignant erythroblasts): induces differentiation; effect on RNA polymerase II (RNA polymerase II): inhibiting
COc1cc(C(O)C(=O)O)ccc1O (stereo not drawn) [vanillylmandelic acid]		> 90%	
CCCCCCCCCCCCCCCCC(O)C(=O)O (stereo not drawn) [α-hydroxystearic acid]		67.8%	
NC(=O)c1cccnc1 [nicotinamide]	active in Jurkat cells		
CCCCCCCCCC(O)CCCCCCCC(=O)O (stereo not drawn) [9-hydroxystearic acid]			effect on histone deacetylase 1 (histone deacetylase 1): inhibition; effect on HT29 colon cancer cells (HT29 colon cancer cells): arrests HT29 colon cancer cells in G0/G1 phase
COc1cc2c(cc1O)CC[C@@H]1[C@@H]2CC[C@]2(C)[C@@H](O)CC[C@@H]12 [2-methoxy-estradiol-17β]	apoptotic agent		anticancer activity in OVCAR-3 cells previously demonstrated (OVCAR-3 cells [3]): anticancer activity

Source: US20140309186A1, “Metabolomics-Based Identification of Disease-Causing Agents” (Georgia Tech Research Corporation, priority 2007, published 2014)
